In series [1] the test system is WiDr. Description: Cytotoxicity against human WiDr cells assessed as reduction in cell proliferation after 24 hrs by sulforhodamine B assay. In kind it is functional, cell-based. In general terms: The SRB assay estimates cell density from bound dye.
For series [2], the system named is WiDr. Description: Cytotoxicity against human WiDr cells assessed as reduction in cell proliferation after 96 hrs by sulforhodamine B assay. In kind it is functional, cell-based.
Series [3] has as its system C2BBe1. Put plainly: Cytotoxicity against human C2BBe1 cells assessed as reduction in cell proliferation after 72 hrs by sulforhodamine B assay. In kind it is functional, cell-based. The note with it: C2BBe1, 72 h.
The test system of series [4] is C2BBe1. Put plainly: Cytotoxicity against human C2BBe1 cells assessed as reduction in cell proliferation after 96 hrs by sulforhodamine B assay. Type of series: functional, cell-based. The note with it: C2BBe1, 96 h.
Series [5] concerns C2BBe1. Description: Cytotoxicity against human C2BBe1 cells assessed as reduction in cell proliferation after 48 hrs by sulforhodamine B assay. In kind it is functional, cell-based. The note with it: C2BBe1, 48 h.
Series [6] relates to WiDr. Description: Cytotoxicity against human WiDr cells assessed as reduction in cell proliferation after 72 hrs by sulforhodamine B assay. Type of series: functional, cell-based.
Series [7] in a line: Cytotoxicity against human neutrophils at 200 uM after 1 hr by trypan blue exclusion assay. In kind it is cell-based. To be noted: neutrophil.
Series [8] relates to Neutrophil. Put plainly: Inhibition of phorbol myristate acetate-induced human neutrophils oxidative burst assessed as reduction in luminol oxidation preincubated for 5 mins followed by PMA addition measured after 15 mins by chemiluminescence assay. Type of series: functional, cell-based.
The subject of series [9] is C2BBe1. Description: Cytotoxicity against human C2BBe1 cells assessed as reduction in cell proliferation after 24 hrs by sulforhodamine B assay. Type of series: functional, cell-based. To be noted: C2BBe1, 24 h.
Series [10] has as its system WiDr. Put plainly: Cytotoxicity against human WiDr cells assessed as reduction in cell proliferation after 48 hrs by sulforhodamine B assay. Type of series: functional, cell-based.
For series [11], the system named is Neutrophil. Description: Inhibition of phorbol myristate acetate-induced superoxide radical generation in human neutrophils at 100 uM preincubated for 5 mins followed by PMA addition by lucigenin chemiluminescence assay. In kind it is functional.
For series [12], the system named is Neutrophil. Put plainly: Inhibition of phorbol myristate acetate-induced human neutrophils oxidative burst assessed as reduction in luminol oxidation up to 200 uM preincubated for 5 mins followed by PMA addition measured after 15 mins by chemiluminescence assay. Type of series: functional.
The test system of series [13] is C2BBe1. Put plainly: Cytotoxicity against human C2BBe1 cells assessed as reduction in cell proliferation up to 200 uM by sulforhodamine B assay. In kind it is functional, cell-based. To be noted: TDE = time-dependent effect.
The test system of series [14] is C2BBe1. Put plainly: Induction of glutathione production in human C2BBe1 cells at 50 uM after 48 hrs by mercury orange dye based flow cytometry relative to control. In kind it is functional. (In general: A flow cytometer gives signals particle by particle.)
The test system of series [15] is C2BBe1. Put plainly: Induction of superoxide anion radical production in human C2BBe1 cells after 48 hrs by dihydroethidium probe based flow cytometry. Type of series: functional, cell-based.
Series [16] has as its system WiDr. Put plainly: Induction of apoptosis in human WiDr cells assessed as early apoptotic cells at 35 to 50 uM after 48 hrs by annexin V/propidium iodide dual staining based flow cytometry. Type of series: functional, cell-based.
Series [17] deals with WiDr. Put plainly: Induction of hydrogen peroxide production in human WiDr cells at 35 to 50 uM after 48 hrs by DCFH2-DA probe based flow cytometry. In kind it is functional, cell-based.
In series [18] the test system is WiDr. Put plainly: Cell cycle arrest in human WiDr cells assessed as accumulation at S phase at 50 uM after 48 hrs by propidium iodide/RNase staining based flow cytometry relative to control. In kind it is functional.
Series [19] deals with WiDr. Put plainly: Induction of superoxide anion radical production in human WiDr cells after 48 hrs by dihydroethidium probe based flow cytometry. Type of series: functional, cell-based.
Series [20] relates to WiDr. Description: Induction of apoptosis in human WiDr cells assessed as decrease in mitochondrial membrane potential at 50 uM after 48 hrs by JC-1 staining based flow cytometry relative to control. Type of series: functional.
Series [21] concerns WiDr. Put plainly: Cell cycle arrest in human WiDr cells assessed as accumulation at pre-G1 phase at 50 uM after 48 hrs by propidium iodide/RNase staining based flow cytometry. Type of series: functional.
The test system of series [22] is C2BBe1. Description: Cell cycle arrest in human C2BBe1 cells assessed as accumulation at G2/M phase at 50 uM after 48 hrs by propidium iodide/RNase staining based flow cytometry relative to control. In kind it is functional.
The test system of series [23] is WiDr. Put plainly: Cytotoxicity against human WiDr cells assessed as reduction in cell viability at 35 uM after 48 hrs by annexin V/propidium iodide dual staining based flow cytometry relative to control. Type of series: functional.
In series [24] the test system is C2BBe1. Description: Induction of apoptosis in human C2BBe1 cells assessed as early apoptotic cells at 50 uM after 48 hrs by annexin V/propidium iodide dual staining based flow cytometry. In kind it is functional, cell-based.
For series [25], the system named is WiDr. Put plainly: Induction of superoxide anion radical production in human WiDr cells at 50 uM after 48 hrs by dihydroethidium probe based flow cytometry relative to control. In kind it is functional.
Series [26] concerns C2BBe1. Put plainly: Cytotoxicity against human C2BBe1 cells assessed as reduction in cell viability at 22 uM after 48 hrs by annexin V/propidium iodide dual staining based flow cytometry relative to control. In kind it is functional.
Series [27] concerns WiDr. Put plainly: Cytotoxicity against human WiDr cells assessed as reduction in cell viability at 50 uM after 48 hrs by annexin V/propidium iodide dual staining based flow cytometry relative to control. In kind it is functional.
The test system of series [28] is C2BBe1. Description: Cytotoxicity against human C2BBe1 cells assessed as reduction in cell viability at 50 uM after 48 hrs by annexin V/propidium iodide dual staining based flow cytometry relative to control. Type of series: functional.

The source of these data is ChEMBL document CHEMBL3813694, “Combined dual effect of modulation of human neutrophils' oxidative burst and inhibition of colon cancer cells proliferation by hydroxycinnamic acid derivatives” (Bioorg Med Chem, 2016).

pIC50: −log10 of the molar value. Activity calls are given as the source filed them. No cut-off for these calls is given here.

Consider `COc1cc(/C=C/C(=O)O)ccc1O` [FERULATE], for which the pIC50 with WiDr [1], with WiDr [2], in the series on C2BBe1 [3], with C2BBe1 [4], in the series on C2BBe1 [5] and with WiDr [6] was less than 3.70 each time. In addition, the pIC50 in the series with Neutrophil [8] was 3.70; with C2BBe1 [9] it was less than 3.70; in the series on WiDr [10], less than 3.70. Further, the Activity in [7] is 98%.
Take `O=C(O)/C=C/c1ccc(O)c(O)c1` [CAFFEIC ACID]: in the series with Neutrophil [11], testing at 100 µM gave an inhibition of 84%. For the same molecule, the “inhibition (INH)” value in the series on Neutrophil [12] came to 44%. This molecule yielded an Activity in [7] of 98%.
Regarding `CCCCCCNC(=O)/C=C/c1cc(O)c(O)c(O)c1`, the pIC50 in the series on WiDr [1] was 4.15; in the series on WiDr [2], 4.50; with C2BBe1 [3] it was 4.00; in the series with C2BBe1 [4], 4.29; in the series on C2BBe1 [5] it was 3.94; in the series with WiDr [6], 4.42. The pIC50 in the series on Neutrophil [8] was 4.44; with C2BBe1 [9], 3.94; with WiDr [10], 4.08. Moreover, the Activity result in the series with C2BBe1 [13] was “tde”; in series [7] it was 98%.
For `CCCCCCNC(=O)/C=C/c1ccc(O)c(OC)c1` [FERULOYLHEXYLAMIDE], the pIC50 in the series on WiDr [1] is 4.07; with WiDr [2], 4.08; in the series on C2BBe1 [3], 4.05; in the series on C2BBe1 [4], 4.22; in the series with C2BBe1 [5], 3.91; in the series with WiDr [6], 4.11. Moreover, the negative logarithm of the IC50 (pIC50) with Neutrophil [8] was 4.85; in the series on C2BBe1 [9], 3.88; in the series with WiDr [10], 4.04. This molecule displayed an Activity in series [7] of 98%.
Regarding `O=C(O)/C=C/c1cc(O)c(O)c(O)c1`, the pIC50 with WiDr [1] was less than 3.70; in the series with WiDr [2], 3.87; in the series with C2BBe1 [3] it was 4.23; in the series on C2BBe1 [4], 4.41; in the series with C2BBe1 [5], 4.06; with WiDr [6] it was 3.94. Further, the pIC50 is 4.72 in the series on Neutrophil [8], 3.88 in the series on C2BBe1 [9] and less than 3.70 in the series with WiDr [10]. Also, the Activity entry was “tde” in the series with C2BBe1 [13] and 98% in series [7].
`CCCCCCNC(=O)/C=C/c1ccc(O)c(O)c1` [CAFFEOYLHEXYLAMIDE]: the “fold change (FC)” value in the series on C2BBe1 [14] came out at 1.47; in the series on WiDr [20] it was 1.27; with WiDr [25] it was 2.63. In addition, the Activity result in the series on C2BBe1 [15] is “Dose-dependent effect”; in the series on WiDr [18], 9.3%; in the series on WiDr [19], “Dose-dependent effect”; with C2BBe1 [22], 8.8%; in the series with WiDr [23], 32.8%; in [7], 98%. Moreover, the Activity in the series with C2BBe1 [26] is reported as 11.4%; in the series on WiDr [27], 43.9%; in the series on C2BBe1 [28], 14.7%. Further, the outcome in the series with WiDr [16], in the series on WiDr [17], with WiDr [21] and in the series with C2BBe1 [24] was Active. Further, the pIC50 in the series on WiDr [1] is 4.25; with WiDr [2] it was 4.51; in the series with C2BBe1 [3], 4.63; in the series on C2BBe1 [4], 4.65; in the series with C2BBe1 [5], 4.66; in the series on WiDr [6], 4.45. The negative logarithm of the IC50 (pIC50) was 5.18 in the series on Neutrophil [8], 4.43 in the series with C2BBe1 [9] and 4.46 with WiDr [10].

One may read the pIC50 as −log10 of the IC50, conventionally taken in molar units. The term inhibition denotes the relative decrease from the control value, in per cent. A high value points to strong suppression.
